Experimental data taken from PubChem BioAssay (NCI).
Several values for one entry are separate records, joined by “and”; a condition that tells them apart may be missing. Equal values may be shown once.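 Growth conditions: 96-well plates. Treatment: test compound, 48 hours, 5 concentrations. Analysis: linear interpolation between bracketing concentrations; unreached endpoints set to highest concentration. GI50 is the concentration that inhibits growth by half. TGI: concentration producing complete growth inhibition.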

tested on: MDA-MB-468 breast; assay: DTP human tumour cell line panel, 48 h

Q: `O=C1NCc2ccc3c(-c4cccc(Cl)c4)c[nH]c3c21` was tested. Which GI50 did it give?
A: 0.231 µM

Q: What about the TGI of the same compound?
A: > 23.1 µM

Q: `COc1cc(-c2nn(-c3ccc(NC(=O)c4ccc(Cl)c(Cl)c4)cc3)cc2-c2ccncc2)ccc1Cl` was tested. Which GI50 did it give?
A: 4.35 µM

Q: What about the TGI of the same compound?
A: > 100 µM

Q: What does the source list for `CC(=O)Nc1ccc2c(c1)c(C1=C(c3cn(C)c4ccccc34)C(=O)NC1=O)cn2C`?
A: GI50: 0.79 µM; TGI: > 25 µM

Q: What does the source list for `CNc1ccc2nc3ccc(=[N+](C)C)cc-3sc2c1`?
A: GI50: 0.801 µM and 0.542 µM; TGI: 2.89 µM and 3.05 µM

Q: Which results are given for `COc1cc2c(cc1OC)C(=O)/C(=C/c1cccc(OCC(=O)c3ccccc3)c1)C2`?
A: GI50: 8.21 µM; TGI: > 100 µM

Q: What does the source list for `O=C(Nc1ccc(N2CCNCC2)cc1)c1[nH]ncc1Nc1ncnc2sc3c(c12)CCC3`?
A: GI50: 0.481 µM; TGI: 2.23 µM

Q: Which results are given for `Cc1cc(-c2ncc(CC(=O)Nc3ccc(-c4cnccn4)cn3)cc2C)ccn1`?
A: GI50: 3.18 µM; TGI: 57.5 µM

Q: Which GI50 does the source give for `COc1cc(/C(C#N)=C/c2ccc3c(c2OC)OCO3)cc2c1OCO2` here?
A: 0.0592 µM

Q: What about the TGI of the same compound?
A: 2.07 µM

Q: Which GI50 does the source give for `COCCOc1ccc2ncc(C#Cc3cncc(C(=O)Nc4ccc(CN5CCN(C)CC5)c(C(F)(F)F)c4)c3)n2n1` here?
A: 0.988 µM

Q: What about the TGI of the same compound?
A: 2.8 µM

Q: Which GI50 does the source give for `COc1ccc(Cl)cc1Nc1nc(C(F)(F)F)ccc1C(=O)N/N=C/c1c(Cl)cccc1Cl` here?
A: 6.66 µM

Q: What about the TGI of the same compound?
A: > 100 µM

Q: Which GI50 does the source give for `COc1ccc2c(c1)[nH]c(=O)c1c3cc(C)c(C)cc3cn21` here?
A: 0.155 µM

Q: What about the TGI of the same compound?
A: 1.59 µM

Q: With `CS(=O)(=O)CCNCc1nc(-c2ccc3ncnc(Nc4ccc(F)c(Cl)c4)c3c2)cs1` as the compound, how does the GI50 read?
A: 0.257 µM

Q: And the TGI?
A: 2.75 µM

Q: Which results are given for `O=C(CCCCCCSc1nc(-c2ccccc2)cc(-c2ccc(Cl)cc2)n1)NO`?
A: GI50: 2.02 µM; TGI: 5.79 µM

Q: With `O=[N+]([O-])C1C(c2ccccc2)C12c1ccccc1-c1ccccc12` (configuration not stated) as the compound, how does the GI50 read?
A: 0.582 µM

Q: And the TGI?
A: 13.6 µM

Q: `CCOc1cc2ncc(C#N)c(Nc3ccc(OCc4cccc(F)c4)c(Cl)c3)c2cc1NC(=O)CC1CCSS1` (configuration not stated) was tested. Which GI50 did it give?
A: 0.427 µM

Q: And the TGI?
A: 1.22 µM

Q: `Cc1ccc2[nH]cc(-c3nc(-c4c[nH]c5ncccc45)cs3)c2c1` was tested. Which GI50 did it give?
A: > 100 µM

Q: And the TGI?
A: > 100 µM

Q: How did the GI50 turn out when `O=c1oc2cc(OS(=O)(=O)c3ccc(F)cc3)ccc2c2c1CCCCC2` was run?
A: 3.87 µM

Q: What about the TGI of the same compound?
A: > 100 µM

Q: Which GI50 does the source give for `CCOC(=O)c1c2c(n3ccc(NC(=O)CCN4CCCC4)cc13)C(=O)c1ncccc1C2=O` here?
A: 1.71 µM

Q: What about the TGI of the same compound?
A: 3.35 µM

Q: What does the source list for `Cc1ccc(-[n+]2c3cc(N)c(C)cc3nc3cc(C)c(Nc4ccccc4)cc32)cc1`?
A: GI50: 0.108 µM; TGI: 0.371 µM

Q: How did the GI50 turn out when `C=C1C(=O)O[C@H]2[C@H]1CC/C(Cn1cc(CNC(=O)Cc3cn(C(=O)c4ccc(Cl)cc4)c4ccc(OC)cc34)nn1)=C\CC[C@@]1(C)O[C@@H]21` was run?
A: 1.22 µM

Q: What about the TGI of the same compound?
A: 2.95 µM

Q: With `CN(C)c1cccc2c(S(=O)(=O)N[C@H]3CC[C@H]4[C@@H]5CCc6cc(O)ccc6[C@H]5CC[C@]34C)cccc12` as the compound, how does the GI50 read?
A: 2.1 µM

Q: What about the TGI of the same compound?
A: 9.71 µM

Q: With `COC(=O)N[C@H]1CCc2c(Br)c(OC)c(OC)c(OC)c2-c2ccc(SC)c(=O)cc21` as the compound, how does the GI50 read?
A: < 0.01 µM

Q: And the TGI?
A: 1.23 µM

Q: What does the source list for `CNC(=O)c1cc(OC2CCC(NC(=O)Nc3ccc(Cl)c(C(F)(F)F)c3)CC2)ccn1` (configuration not stated)?
A: GI50: 3.35 µM; TGI: 14.5 µM

Q: Which results are given for `CCN(CC)CCOc1nc2ccc(OC)cc2c2c1-c1ccc(OC)cc1C2=O`?
A: GI50: 3.37 µM; TGI: 21.7 µM

Q: How did the GI50 turn out when `COc1ccc(-c2nc3sc(C)cn3c2/C=C/C(=O)c2cc(OC)c(OC)c(OC)c2)cc1` was run?
A: 2.76 µM

Q: And the TGI?
A: 9.35 µM

Q: What does the source list for `COc1ccc2nc(N/N=C(\C)c3ccccn3)cc(C)c2c1`?
A: GI50: 0.233 µM; TGI: 0.815 µM

Q: How did the GI50 turn out when `CC(=O)O[C@H]1CC[C@@]2(C)C(=CC[C@@H]3[C@@H]2CC[C@]2(C)C(c4cccnc4)=CC[C@@H]32)C1` was run?
A: 2.62 µM

Q: And the TGI?
A: 17.5 µM

Q: Which results are given for `Cc1ccc(CNc2c3ccccc3nc3ccccc23)cc1`?
A: GI50: 1.49 µM; TGI: 3.68 µM

Q: Which GI50 does the source give for `COc1ccc(-c2nn3ncccc3c2-c2ccnc(Nc3ccc(Cl)c(C(F)(F)F)c3)n2)cc1` here?
A: 5.81 µM

Q: What about the TGI of the same compound?
A: > 20.9 µM

Q: `O=C(NNc1nc(Cl)nc(N2CCN(C(c3ccccc3)c3ccccc3)CC2)n1)c1ccccc1` was tested. Which GI50 did it give?
A: 1.9 µM

Q: And the TGI?
A: 6.03 µM

Q: Which results are given for `COc1cc(C2CC(c3ccc(C)cc3)=NN2C=O)ccc1Oc1ccnc2cc(Cl)ccc12` (configuration not stated)?
A: GI50: 2.59 µM; TGI: 37.8 µM

Q: Which GI50 does the source give for `C=C1CC2(OC1=O)C(=O)N(CCCCCCCN1C(=O)C3(CC(=C)C(=O)O3)c3ccccc31)c1ccccc12` (configuration not stated) here?
A: 0.984 µM

Q: And the TGI?
A: 3.74 µM

Q: What does the source list for `CCOC(=O)c1ccc(NC(=O)N2CC(C)OC(C)C2)cc1` (configuration not stated)?
A: GI50: > 100 µM; TGI: > 100 µM

Q: What does the source list for `C=C1C(=O)O[C@H]2[C@H]1CC/C(COC(=O)c1cc3cc(F)ccc3[nH]1)=C\CC[C@@]1(C)O[C@@H]21`?
A: GI50: 1.86 µM; TGI: 3.79 µM

Q: Which results are given for `COc1cc(C2C=C(c3cccc(NC(C)=O)c3)Nc3ncnn32)cc(OC)c1OC` (configuration not stated)?
A: GI50: 0.852 µM; TGI: > 23.8 µM

Q: `O=C(CSc1nc2ccccc2[nH]1)Nc1ccc(-c2nc3ccccc3s2)c(Cl)c1` was tested. Which GI50 did it give?
A: 4.45 µM

Q: And the TGI?
A: > 100 µM
